target: GHS-R (Homo sapiens, UniProt Q92847); assay: GHS-R antagonist activity (Ki) in a cell based assay
Method in brief: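 Transfected COS-7 cells were labelled 24 h with [^3H]-myo-inositol and preincubated 30 min at 37 °C in HEPES buffer pH 7.4 with 10 mM LiCl, optionally with 1 U/ml adenosine deaminase. Compound was applied for 45 min at 37 °C. [^3H]-inositol phosphates were extracted with perchloric acid and isolated by anion-exchange resin.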

Sequence of GHS-R (Q92847 whole entry, species assumed): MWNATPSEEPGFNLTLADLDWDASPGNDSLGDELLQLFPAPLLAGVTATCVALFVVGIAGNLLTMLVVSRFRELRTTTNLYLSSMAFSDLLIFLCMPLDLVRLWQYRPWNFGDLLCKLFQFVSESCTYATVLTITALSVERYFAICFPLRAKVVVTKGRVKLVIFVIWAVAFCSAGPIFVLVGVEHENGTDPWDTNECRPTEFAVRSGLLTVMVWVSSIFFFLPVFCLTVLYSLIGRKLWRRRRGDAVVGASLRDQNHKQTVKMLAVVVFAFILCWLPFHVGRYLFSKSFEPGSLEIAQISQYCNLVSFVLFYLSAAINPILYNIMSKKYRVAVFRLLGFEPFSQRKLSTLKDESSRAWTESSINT

Ki	Compound
< 100 nM	CCN(CC)CCS(=O)(=O)N[C@H](CCc1ccccc1)c1nc(Cc2cccc(F)c2)no1 [Compound 82, 2-Diethylamino-ethanesulfonic acid {(R)-1-[3-(3-fluoro-benzyl)-[1,2,4]oxadiazol-5-yl]-3-phenyl-propyl}-amide]
100 to 500 nM	CCN(CC)CCCS(=O)(=O)N[C@H](CCc1ccccc1)c1nc(-c2cnccc2C)no1 [Compound 83, 3-Diethylamino-propane-1-sulfonic acid {(R)-1-[3-(4-methyl-pyridin-3-yl)-[1,2,4]oxadiazol-5-yl]-3-phenyl-propyl}-amide]
100 to 500 nM	CCN(CC)CCS(=O)(=O)N[C@H](CCc1ccccc1)c1nc(Cc2ccc(Br)cc2)no1 [Compound 84, 2-Diethylamino-ethanesulfonic acid {(R)-1-[3-(4-bromo-benzyl)-[1,2,4]oxadiazol-5-yl]-3-phenyl-propyl}-amide]
≥ 1000 nM	CCN(CC)CCS(=O)(=O)N[C@H](CCc1ccccc1)c1nc(-c2ccc(Br)cc2C)no1 [Compound 85, 2-Diethylamino-ethanesulfonic acid {(R)-1-[3-(4-bromo-2-methyl-phenyl)-[1,2,4]oxadiazol-5-yl]-3-phenyl-propyl}-amide]
100 to 500 nM	CCN(CC)CCS(=O)(=O)N[C@H](CCc1ccccc1)c1nc(-c2ccc(C)cc2)no1 [Compound 86, 2-Diethylamino-ethanesulfonic acid [(R)-3-phenyl-1-(3-p-tolyl-[1,2,4]oxadiazol-5-yl)-propyl]-amide]
100 to 500 nM	CCN(CC)CCS(=O)(=O)N[C@H](CCc1ccccc1)c1nc(Cc2ccccc2C)no1 [Compound 87, 2-Diethylamino-ethanesulfonic acid {(R)-1-[3-(2-methyl-benzyl)-[1,2,4]oxadiazol-5-yl]-3-phenyl-propyl}-amide]
≥ 1000 nM	CCN(CC)CCS(=O)(=O)N[C@H](CCc1ccccc1)c1nc(-c2ccc(OC)cc2)no1 [Compound 88, 2-Diethylamino-ethanesulfonic acid {(R)-1-[3-(4-methoxy-phenyl)-[1,2,4]oxadiazol-5-yl]-3-phenyl-propyl}-amide]
< 100 nM	CCN(CC)CCS(=O)(=O)N[C@H](CCc1ccccc1)c1nc(-c2ccc(F)cc2)no1 [Compound 89, 2-Diethylamino-ethanesulfonic acid {(R)-1-[3-(4-fluoro-phenyl)-[1,2,4]oxadiazol-5-yl]-3-phenyl-propyl}-amide]
< 100 nM	CCN(CC)CCS(=O)(=O)N[C@H](CCc1ccccc1)c1nc(Cc2c(Cl)cccc2Cl)no1 [Compound 90, 2-Diethylamino-ethanesulfonic acid {(R)-1-[3-(2,6-dichloro-benzyl)-[1,2,4]oxadiazol-5-yl]-3-phenyl-propyl}-amide]
100 to 500 nM	CCN(CC)CCS(=O)(=O)N[C@H](CCc1ccccc1)c1nc(Cc2ccccc2F)no1 [Compound 91, 2-Diethylamino-ethanesulfonic acid {(R)-1-[3-(2-fluoro-benzyl)-[1,2,4]oxadiazol-5-yl]-3-phenyl-propyl}-amide]
< 100 nM	CCN(CC)CCS(=O)(=O)N[C@H](CCc1ccccc1)c1nc(Cc2cccc(Br)c2)no1 [Compound 92, 2-Diethylamino-ethanesulfonic acid {(R)-1-[3-(3-bromo-benzyl)-[1,2,4]oxadiazol-5-yl]-3-phenyl-propyl}-amide]
< 100 nM	CCN(CC)CCS(=O)(=O)N[C@H](CCc1ccccc1)c1nc(Cc2ccccc2Br)no1 [Compound 93, 2-Diethylamino-ethanesulfonic acid {(R)-1-[3-(2-bromo-benzyl)-[1,2,4]oxadiazol-5-yl]-3-phenyl-propyl}-amide]
< 100 nM	CCN(CC)CCCS(=O)(=O)N[C@@H](Cc1ccccc1)c1nc(-c2ccc(OC)cc2)n[nH]1 [Compound 95, 3-Diethylamino-propane-1-sulfonic acid {(S)-1-[5-(4-methoxy-phenyl)-2H-[1,2,4]triazol-3-yl]-2-phenyl-ethyl}-amide]
< 100 nM	CCN(CC)CCCS(=O)(=O)N[C@H](CCc1ccccc1)c1nc(-c2ccc(F)cc2F)n[nH]1 [Compound 96, 3-Diethylamino-propane-1-sulfonic acid {(R)-1-[5-(2,4-difluoro-phenyl)-2H-[1,2,4]triazol-3-yl]-3-phenyl-propyl}-amide]
< 100 nM	CCN(CC)CCCS(=O)(=O)N[C@H](CCc1ccccc1)c1nc(CCc2ccccc2)no1 [Compound 97, 3-Diethylamino-propane-1-sulfonic acid [(R)-1-(3-phenethyl-[1,2,4]oxadiazol-5-yl)-3-phenyl-propyl]-amide]
100 to 500 nM	CCN(CC)CCCS(=O)(=O)N[C@H](CCC(N)=O)c1nc(Cc2ccc(Br)cc2)no1 [Compound 98, (R)-4-[3-(4-Bromo-benzyl)-[1,2,4]oxadiazol-5-yl]-4-(3-diethylamino-propane-1-sulfonylamino)-butyramide]
< 100 nM	CCN(CC)CCCS(=O)(=O)N[C@H](CCc1ccccc1)c1nc(COc2ccccc2)no1 [Compound 99, 3-Diethylamino-propane-1-sulfonic acid [(R)-1-(3-phenoxymethyl-[1,2,4]oxadiazol-5-yl)-3-phenyl-propyl]-amide]

Ki	Compound
< 100 nM	CCN(CC)CCCS(=O)(=O)N[C@H](CCc1ccccc1)c1nc(Cc2ccccc2OC)no1 [Compound 100, 3-Diethylamino-propane-1-sulfonic acid {(R)-1-[3-(2-methoxy-benzyl)-[1,2,4]oxadiazol-5-yl]-3-phenyl-propyl}-amide]
100 to 500 nM	CCN(CC)CCCS(=O)(=O)N[C@H](CCc1ccccc1)c1nc(CCc2ccccc2Cl)no1 [Compound 101, 3-Diethylamino-propane-1-sulfonic acid ((R)-1-{3-[2-(2-chloro-phenyl)-ethyl]-[1,2,4]oxadiazol-5-yl}-3-phenyl-propyl)-amide]
100 to 500 nM	CCN(CC)CCCS(=O)(=O)N[C@H](CC(N)=O)c1nc(Cc2ccc(Br)cc2)no1 [Compound 102, (R)-3-[3-(4-Bromo-benzyl)-[1,2,4]oxadiazol-5-yl]-3-(3-diethylamino-propane-1-sulfonylamino)-propionamide]
< 100 nM	CCN(CC)CCCS(=O)(=O)N[C@H](CCc1ccccc1)c1nc(-c2ccccc2C)n[nH]1 [Compound 104, 3-Diethylamino-propane-1-sulfonic acid [(R)-3-phenyl-1-(5-o-tolyl-2H-[1,2,4]triazol-3-yl)-propyl]-amide]
< 100 nM	CCN(CC)CCCS(=O)(=O)N[C@H](CCc1ccccc1)c1nc(-c2ccc(F)cc2)n[nH]1 [Compound 105, 3-Diethylamino-propane-1-sulfonic acid {(R)-1-[5-(4-fluoro-phenyl)-2H-[1,2,4]triazol-3-yl]-3-phenyl-propyl}-amide]
< 100 nM	CCN(CC)CCCS(=O)(=O)N[C@H](CCc1ccccc1)c1nc(-c2ccc(OC(F)(F)F)cc2)n[nH]1 [Compound 106, 3-Diethylamino-propane-1-sulfonic acid {(R)-3-phenyl-1-[5-(4-trifluoromethoxy-phenyl)-2H-[1,2,4]triazol-3-yl]-propyl}-amide]
100 to 500 nM	CCN(CC)CCCS(=O)(=O)N[C@H](CCc1ccccc1)c1nc(Cc2ccc(OC)cc2)n[nH]1 [Compound 107, 3-Diethylamino-propane-1-sulfonic acid {(R)-1-[5-(4-methoxy-benzyl)-2H-[1,2,4]triazol-3-yl]-3-phenyl-propyl}-amide]
100 to 500 nM	CCN(CC)CCCS(=O)(=O)N[C@H](CCc1ccccc1)c1nc(-c2ccc(C)cc2)n[nH]1 [Compound 108, 3-Diethylamino-propane-1-sulfonic acid [(R)-3-phenyl-1-(5-p-tolyl-2H-[1,2,4]triazol-3-yl)-propyl]-amide]
< 100 nM	CCN(CC)CCCS(=O)(=O)N[C@H](CCc1ccccc1)c1nc(Cc2cccc(OC)c2)no1 [Compound 109, 3-Diethylamino-propane-1-sulfonic acid {(R)-1-[3-(3-methoxy-benzyl)-[1,2,4]oxadiazol-5-yl]-3-phenyl-propyl}-amide]
≥ 1000 nM	CCN(CC)CCCS(=O)(=O)N[C@H](CCc1ccccc1)c1nc(-c2ccc(N(C)C)cc2)n[nH]1 [Compound 110, 3-Diethylamino-propane-1-sulfonic acid {(R)-1-[5-(4-dimethylamino-phenyl)-2H-[1,2,4]triazol-3-yl]-3-phenyl-propyl}-amide]
< 100 nM	CCN(CC)CCCS(=O)(=O)N[C@H](CCc1ccccc1)c1nc(Cc2ccc(OC)cc2)no1 [Compound 111, 3-Diethylamino-propane-1-sulfonic acid {(R)-1-[3-(4-methoxy-benzyl)-[1,2,4]oxadiazol-5-yl]-3-phenyl-propyl}-amide]
100 to 500 nM	CCN(CC)CCCS(=O)(=O)N[C@H](CCc1ccccc1)c1nc(Cc2ccccn2)no1 [Compound 112, 3-Diethylamino-propane-1-sulfonic acid [(R)-3-phenyl-1-(3-pyridin-2-ylmethyl-[1,2,4]oxadiazol-5-yl)-propyl]-amide]
< 100 nM	CCN(CC)CCCS(=O)(=O)N[C@H](CCc1ccccc1)c1nc(CCc2ccc(Br)cc2)no1 [Compound 113, 3-Diethylamino-propane-1-sulfonic acid ((R)-1-{3-[2-(4-bromo-phenyl)-ethyl]-[1,2,4]oxadiazol-5-yl}-3-phenyl-propyl)-amide]
< 100 nM	CCN(CC)CCCS(=O)(=O)N[C@H](CCc1ccccc1)c1nc(Cc2ccccc2Cl)no1 [Compound 114, 3-Diethylamino-propane-1-sulfonic acid {(R)-1-[3-(2-chloro-benzyl)-[1,2,4]oxadiazol-5-yl]-3-phenyl-propy}-amide]
< 100 nM	CCN(CC)CCCS(=O)(=O)N[C@H](CCc1ccccc1)c1nc(-c2ccc(OC)cc2F)n[nH]1 [Compound 115, 3-Diethylamino-propane-1-sulfonic acid {(R)-1-[5-(2-fluoro-4-methoxy-phenyl)-2H-[1,2,4]triazol-3-yl]-3-phenyl-propyl}-amide]
100 to 500 nM	CCN(CC)CCCS(=O)(=O)N[C@H](CCc1ccccc1)c1nc(Cc2ccccc2)no1 [Compound 116, 3-Diethylamino-propane-1-sulfonic acid [(R)-1-(3-benzyl-[1,2,4]oxadiazol-5-yl)-3-phenyl-propyl]-amide]

— patent US7829589B2, “Sulfonamide compounds and uses thereof” (Elixir Pharmaceuticals, Inc., priority 2005, dated 2010)
